Measured values reported in patent US9796716B2, “Selective inhibitors of Tec and Src protein kinase families” (Pharmascience, Inc., priority 2012, dated 2017).
Where two headings read alike, the source gives them in different places.

Legend:
[1] = system: Splenocytes (B cell proliferation stimulated with anti-IgM F(ab′)2); assay: Splenic Cell Proliferation Assay; type: cell-based; details: CD1 mouse splenocytes, 2.5 ug/ml anti-IgM F(ab′)2 for 72 h, Cell Titer-Glo, read-out: EC50 (nM), Inhibition of splenic cell proliferation
Procedure: Splenic Cell Proliferation Assay
Splenocytes were obtained from 6 week old male CD1 mice (Charles River Laboratories Inc.). Mouse spleens were manually disrupted in PBS and filtered using a 70 um cell strainer followed by ammonium chloride red blood cell lysis. Cells were washed, resuspended in Splenocyte Medium (HyClone RPMI supplemented with 10% heat-inactivated FBS, 0.5× non-essential amino acids, 10 mM HEPES, 50 uM beta mercaptoethanol) and incubated at 37° C., 5% CO2 for 2 h to remove adherent cells. Suspension cells were seeded in 96 well plates at 50,000 cells per well and incubated at 37° C., 5% CO2 for 1 h. Splenocytes were pre-treated in triplicate with 10,000 nM curves of Formula 1 compounds for 1 h, followed by stimulation of B cell proliferation with 2.5 ug/ml anti-IgM F(ab′)2 (Jackson ImmunoResearch) for 72 h. Cell proliferation was measured by Cell Titer-Glo Luminescent Assay (Promega). EC50 values (50% proliferation in the presence of compound as compared to vehicle treated controls) were calculated from dose response compound curves using GraphPad Prism Software.

[2] = target: recombinant human full-length Bruton Agammaglobulinemia Tyrosine Kinase (Btk) (Homo sapiens (Human), UniProt Q06187); assay: Btk Kinase Inhibition Assay (fluorescence polarization); type: biochemical; details: 10 μM ATP, 250 μM substrate, 60 minutes; Ki calculated from IC50 using the Cheng-Prusoff equation
Sequence of recombinant human full-length Bruton Agammaglobulinemia Tyrosine Kinase (Btk) (Q06187 whole entry): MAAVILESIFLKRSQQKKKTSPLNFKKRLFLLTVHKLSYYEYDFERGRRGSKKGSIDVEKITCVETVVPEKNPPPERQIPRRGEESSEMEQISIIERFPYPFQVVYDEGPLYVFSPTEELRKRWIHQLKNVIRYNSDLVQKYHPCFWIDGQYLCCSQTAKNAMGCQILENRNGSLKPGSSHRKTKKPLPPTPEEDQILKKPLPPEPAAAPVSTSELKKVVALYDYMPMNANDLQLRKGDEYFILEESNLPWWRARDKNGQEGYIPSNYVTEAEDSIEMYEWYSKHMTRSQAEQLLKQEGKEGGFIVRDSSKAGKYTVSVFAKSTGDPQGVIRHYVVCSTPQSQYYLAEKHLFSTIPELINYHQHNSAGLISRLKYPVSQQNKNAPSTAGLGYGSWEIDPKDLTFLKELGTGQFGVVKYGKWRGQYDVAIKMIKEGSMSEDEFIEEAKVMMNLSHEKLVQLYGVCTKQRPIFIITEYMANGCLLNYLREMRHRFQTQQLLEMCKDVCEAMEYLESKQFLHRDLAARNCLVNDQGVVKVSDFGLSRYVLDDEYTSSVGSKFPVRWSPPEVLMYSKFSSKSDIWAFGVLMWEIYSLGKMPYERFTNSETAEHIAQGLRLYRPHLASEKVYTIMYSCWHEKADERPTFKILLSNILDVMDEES
Procedure: Kinase Binding Btk Kinase Inhibition Assay
Fluorescence polarization-based kinase assays were performed in 384 well-plate format using histidine tagged recombinant human full-length Bruton Agammaglobulinemia Tyrosine Kinase (Btk) and a modified protocol of the KinEASE™ FP Fluorescein Green Assay supplied from Millipore. Kinase reaction were performed at room temperature for 60 minutes in presence of 250 μM substrate, 10 μM ATP and variable test article concentrations. The reaction was stopped with EDTA/kinase detection reagents and the polarization measured on a Tecan 500 instrument. From the dose-response curve obtained, the IC50 was calculated using Graph Pad Prisms® using a non linear fit curve. The Km for ATP on each enzyme was experimentally determined and the Ki values calculated using the Cheng-Prusoff equation (see: Cheng Y, Prusoff W H. (1973) Relationship between the inhibition constant (K1) and the concentration of inhibitor which causes 50 percent inhibition (I50) of an enzymatic reaction”. Biochem Pharmacol 22 (23): 3099-108).

[3] = system: Balb/c mice; assay: Mouse Arthus; type: in vivo; details: oral gavage at 30 mg/kg, 1 h pre-treatment
Procedure: Mouse Arthus studies were conducted as reported in Braselmann S, Taylor V, Zhao H, Wang S, Sylvain C, Baluom M, Qu K, Herlaar E, Lau A, Young C, Wong B R, Lovell S, Sun T, Park G, Argade A, Jurcevic S, Pine P, Singh R, Grossbard E B, Payan D G, Masuda E S: R406 an orally available spleen tyrosine kinase inhibitor blocks fc receptor signaling and reduces immune-complex mediated inflammation. J Pharmacol Exp Ther, 2006, 319:998-1008.
In summary, female Balb/c mice (6-7 weeks on arrival) were habituated to the animal facility for at least 4 days. On the day of the experiment, animals were pre-treated (t=minus 1 h) with compound or vehicle alone by gavage (PO). At t=0, animals were injected intravenously (IV; 0.1 mL/mouse) with saline containing chicken ovalbumin and Evan's blue (10 mg/mL of each). Ten minutes later (t=10 min), animals were anesthesized with isoflurane, the dorsal surface was shaved and rabbit anti-chicken ovalbumin antibody was then injected intradermally at one site on the right side of the animal (25 μg in 30 μL). The same amount of isotype control antibody was then injected on the left side.
The animals were then returned to their home cage and skin punches (8 mm) were collected from each injection site four hours later. The samples were placed in 1 mL formamide overnight at 80 degrees C. (1 skin biopsy per 1 mL formamide in a glass tube). The amount of Evan's blue in the formamide solution was then assessed by spectrophotometry (630 nm) as a measure of serum extravasation into the dermis.

| SMILES | EC50 [1] | Ki [2] | efficacy in mouse Arthus (Evan's blue extravasation) [3] | EC50 ([1]; Mus musculus, Splenocyte, 72 h) |
| --- | --- | --- | --- | --- |
| N#Cc1ccccc1COc1cccc(Oc2ccc(-c3nn(C4CCCC4)c4ncnc(N)c34)cc2)c1 [Compound 15] | < 100 nM | < 100 nM | demonstrated efficacy | – |
| Nc1ncnc2c1c(-c1ccc(Oc3cccc(OCc4cncs4)c3)cc1)nn2C1CCOCC1 [Compound 24] | – | < 100 nM | demonstrated efficacy | < 100 nM |
| Nc1ncnc2c1c(-c1ccc(Oc3cc(F)cc(OCc4cncs4)c3)cc1)nn2C1CCOCC1 [Compound 46] | – | < 100 nM | demonstrated efficacy | < 100 nM |
| Nc1ncnc2c1c(-c1ccc(Oc3cc(F)cc(OCc4cncs4)c3)cc1)nn2C1CCCC1 [Compound 50] | – | < 100 nM | demonstrated efficacy | < 100 nM |
| Cc1ncc(COc2cc(F)cc(Oc3ccc(-c4nn(C5CCOCC5)c5ncnc(N)c45)cc3)c2)s1 [Compound 54] | – | < 100 nM | demonstrated efficacy | < 100 nM |
| Cc1ncc(COc2cc(F)cc(Oc3ccc(-c4nn(C5CCOCC5)c5ncnc(N)c45)cc3F)c2)s1 [Compound 59] | – | < 100 nM | demonstrated efficacy | < 100 nM |
| Cc1ncc(COc2cccc(Oc3ccc(-c4nn(C5CCOCC5)c5ncnc(N)c45)cc3F)c2)s1 [Compound 62] | – | < 100 nM | demonstrated efficacy | < 100 nM |
| Cn1cncc1COc1cc(F)cc(Oc2ccc(-c3nn(C4CCOCC4)c4ncnc(N)c34)cc2)c1 [Compound 71] | – | < 100 nM | demonstrated efficacy | < 100 nM |
| CC(C)n1nc(-c2ccc(Oc3cc(F)cc(OCc4cncn4C)c3)cc2)c2c(N)ncnc21 [Compound 79] | – | < 100 nM | demonstrated efficacy | < 100 nM |
| Cn1cncc1COc1cc(F)cc(Oc2ccc(-c3nn(C4CCCC4)c4ncnc(N)c34)cc2)c1 [Compound 82] | – | < 100 nM | demonstrated efficacy | < 100 nM |
| Cn1cncc1COc1cc(F)cc(Oc2ccc(-c3nn(CCO)c4ncnc(N)c34)cc2)c1 [Compound 90] | – | < 100 nM | demonstrated efficacy | 100 to 1000 nM |
| Cc1ncc(COc2cc(F)cc(Oc3ccc(-c4nn(C(CO)CO)c5ncnc(N)c45)cc3)c2)s1 [Compound 100] | – | < 100 nM | demonstrated efficacy | < 100 nM |
| Cn1cncc1COc1cc(F)cc(Oc2ccc(-c3nn(C4CCCCC4)c4ncnc(N)c34)cc2)c1 [Compound 103] | – | < 100 nM | demonstrated efficacy | < 100 nM |
| Cc1ncc(COc2cc(F)cc(Oc3ccc(-c4nn(C5CCOCC5)c5ncnc(N)c45)cc3)c2)cn1 [Compound 106] | – | < 100 nM | demonstrated efficacy | < 100 nM |
| Cc1ncc(COc2cc(F)cc(Oc3ccc(-c4nn(C5CCCC5)c5ncnc(N)c45)cc3)c2)cn1 [Compound 107] | – | < 100 nM | demonstrated efficacy | < 100 nM |
| Cc1ncc(COc2cc(F)cc(Oc3ccc(-c4nn(C5CCOCC5)c5ncnc(N)c45)cc3)c2)n1C [Compound 108] | – | < 100 nM | demonstrated efficacy | < 100 nM |

| SMILES | EC50 [1] | Ki [2] | efficacy in mouse Arthus (Evan's blue extravasation) [3] | EC50 ([1]; Mus musculus, Splenocyte, 72 h) |
| --- | --- | --- | --- | --- |
| Cc1ncc(COc2cc(F)cc(Oc3ccc(-c4nn(C5COC5)c5ncnc(N)c45)cc3)c2)s1 [Compound 113] | – | < 100 nM | – | < 100 nM |
| Cc1ncc(COc2cc(F)cc(Oc3ccc(-c4nn(CCCO)c5ncnc(N)c45)cc3)c2)cn1 [Compound 114] | – | < 100 nM | – | 100 to 1000 nM |
| Cc1ncc(COc2cc(F)cc(Oc3ccc(-c4nn(CCO)c5ncnc(N)c45)cc3)c2)n1C [Compound 115] | – | < 100 nM | – | 100 to 1000 nM |
| Cn1cncc1COc1cc(F)cc(Oc2ccc(-c3nn(CCCO)c4ncnc(N)c34)cc2)c1 [Compound 116] | – | < 100 nM | – | < 100 nM |
| Cc1ncc(COc2cc(F)cc(Oc3ccc(-c4nn(C5CCOCC5)c5ncnc(N)c45)cc3)c2)[nH]1 [Compound 118] | – | < 100 nM | – | 100 to 1000 nM |
| Cc1ncc(COc2cc(F)cc(Oc3ccc(-c4nn(CC5(C)COC5)c5ncnc(N)c45)cc3)c2)cn1 [Compound 119] | – | < 100 nM | – | 100 to 1000 nM |
| Cc1ncc(COc2cc(F)cc(Oc3ccc(-c4nn(C5CCCC5)c5ncnc(N)c45)cc3)c2)n1C [Compound 120] | – | < 100 nM | – | < 100 nM |
| Cc1ncc(COc2cc(F)cc(Oc3ccc(-c4nn(CC(C)(C)O)c5ncnc(N)c45)cc3)c2)n1C [Compound 121] | – | < 100 nM | – | 100 to 1000 nM |
| Cc1ncc(COc2cc(F)cc(Oc3ccc(-c4nn(CC(C)(C)O)c5ncnc(N)c45)cc3)c2)cn1 [Compound 122] | – | < 100 nM | – | 100 to 1000 nM |
| Cc1ncc(COc2cc(F)cc(Oc3ccc(-c4nn(C(C)C)c5ncnc(N)c45)cc3)c2)n1C [Compound 123] | – | < 100 nM | – | < 100 nM |
| Cc1ncc(COc2cc(F)cc(Oc3ccc(-c4nn(CC5(C)COC5)c5ncnc(N)c45)cc3)c2)n1C [Compound 124] | – | < 100 nM | – | 100 to 1000 nM |
| Cc1ccc(COc2cc(F)cc(Oc3ccc(-c4nn(CC5(C)COC5)c5ncnc(N)c45)cc3)c2)cn1 [Compound 126] | – | < 100 nM | – | 100 to 1000 nM |
| Cc1ncc(COc2cc(F)cc(Oc3ccc(-c4nn(C(C)(C)C)c5ncnc(N)c45)cc3)c2)s1 [Compound 127] | – | < 100 nM | – | < 100 nM |
| CC(C)n1nc(-c2ccc(Oc3cc(F)cc(OCc4ccc(CO)nc4)c3)cc2)c2c(N)ncnc21 [Compound 128] | – | < 100 nM | – | < 100 nM |
| Cc1ncc(COc2cc(F)cc(Oc3ccc(-c4nn(C(C)(C)C)c5ncnc(N)c45)cc3)c2)cn1 [Compound 129] | – | < 100 nM | – | < 100 nM |
| Cc1ncc(COc2cc(F)cc(Oc3ccc(-c4nn(C(CO)CO)c5ncnc(N)c45)cc3)c2)cn1 [Compound 130] | – | < 100 nM | – | 100 to 1000 nM |
